The values below come from US20150141381A1, “TETRACYCLINE COMPOUNDS HAVING TARGET THERAPEUTIC ACTIVITIES” (Paratek Pharmaceuticals, Inc., priority 2001, published 2015).

The structures appear in SMILES notation. Like-named read-outs stand apart in the source and are kept apart here. Some results are limits rather than exact numbers.

For one experiment, the system named is S. aureus RN450. In words: In Vitro Anti-Bacterial Activity Assay (MIC), gram positive. The conditions noted are these: Staphylococcus aureus, RN450, 18 h. The class given is cell-based.
For the next experiment, the system named is E. coli mL308 225. In words: In Vitro Anti-Bacterial Activity Assay (MIC), gram negative. Format: cell-based. The note with it: Escherichia coli, ML308225, 18 h.
Where [1] appears, read: MIC class, Table 3, read-out: Antibiotic Activity Gram +.
Setting [2] is: MIC class, Table 3, read-out: Antibiotic Activity Gram −.
Where [3] appears, read: gram positive bacteria, read-out: Antibiotic Activity Gram + (MIC).
Where [4] appears, read: gram negative bacteria, read-out: Antibiotic Activity Gram − (MIC).
The mark [5] stands for this setting: MIC class, Table 3 (Continued), read-out: Gram+ activity.
Where [6] appears, read: MIC class, Table 3 (Continued), read-out: Gram− activity.

`CN(C)c1cc(C#Cc2ccc(N)cc2)c(O)c2c1C[C@H]1C[C@H]3[C@H](N(C)C)C(O)=C(C(N)=O)C(=O)[C@@]3(O)C(O)=C1C2=O` [CX]: the MIC in the experiment with S. aureus RN450 (setting [1]) and with E. coli mL308 225 (setting [2]) was > 4 µg/mL throughout.
`CCOC(=O)/C=C/c1cc(N(C)C)c2c(c1O)C(=O)C1=C(O)[C@]3(O)C(=O)C(C(N)=O)=C(O)[C@@H](N(C)C)[C@@H]3C[C@@H]1C2`: the figures for the MIC with S. aureus RN450 (setting [3]) and in the experiment with E. coli mL308 225 (setting [4]) were < 4 µg/mL and > 4 µg/mL, respectively.
As to `COc1cccc(C#Cc2ccc(O)c3c2C[C@H]2C[C@H]4[C@H](N(C)C)C(O)=C(C(N)=O)C(=O)[C@@]4(O)C(O)=C2C3=O)c1`, the MIC with S. aureus RN450 (setting [5]) and with E. coli mL308 225 (setting [6]) was < 4 µg/mL throughout.
Turning to `CCCC(C)c1ccc(OC)c(-c2ccc(O)c3c2C[C@H]2C[C@H]4[C@H](N(C)C)C(O)=C(C(N)=O)C(=O)[C@@]4(O)C(O)=C2C3=O)c1` (stereo partly shown), the MIC in the experiment with S. aureus RN450 (setting [3]) was < 4 µg/mL; in the experiment with E. coli mL308 225 (setting [4]) it was > 4 µg/mL.
Regarding `CN(C)c1cc(CN2CCC(=O)CC2)c(O)c2c1C[C@H]1C[C@H]3[C@H](N(C)C)C(O)=C(C(N)=O)C(=O)[C@@]3(O)C(O)=C1C2=O`, the MIC is < 4 µg/mL in the experiment with S. aureus RN450 (setting [3]) and > 4 µg/mL in the experiment with E. coli mL308 225 (setting [4]).
On the same counts, the results for `CN(C)[C@@H]1C(O)=C(C(N)=O)C(=O)[C@@]2(O)C(O)=C3C(=O)c4c(ccc(NCCNC(C)(C)C)c4O)C[C@H]3C[C@@H]12` are < 4 µg/mL and < 4 µg/mL.
As to `CN(C)[C@@H]1C(O)=C(C(N)=O)C(=O)[C@@]2(O)C(O)=C3C(=O)c4c(O)ccc(C#Cc5ccc(N(O)O)cc5)c4C[C@H]3C[C@@H]12`, the MIC with S. aureus RN450 (setting [5]) and in the experiment with E. coli mL308 225 (setting [6]) was < 4 µg/mL each time.
In the case of `CN(C)[C@@H]1C(O)=C(C(N)=O)C(=O)[C@@]2(O)C(O)=C3C(=O)c4c(O)ccc(C#Cc5ccccc5)c4C[C@H]3C[C@@H]12`, the MIC with S. aureus RN450 (setting [5]) and in the experiment with E. coli mL308 225 (setting [6]) was < 4 µg/mL throughout.
Turning to `C[C@H]1c2ccc(N(C)C3CCN(C)CC3)c(O)c2C(=O)C2=C(O)[C@]3(O)C(=O)C(C(N)=O)=C(O)[C@@H](N(C)C)[C@@H]3[C@@H](O)[C@@H]21`, the MIC with S. aureus RN450 (setting [3]) and with E. coli mL308 225 (setting [4]) was > 4 µg/mL each time.
Turning to `CN(C)[C@@H]1C(O)=C(C(N)=O)C(=O)[C@@]2(O)C(O)=C3C(=O)c4c(ccc(NC(=O)CCCC(=O)O)c4O)C[C@H]3C[C@@H]12` [HX], the MIC in the experiment on S. aureus RN450 (setting [1]) and with E. coli mL308 225 (setting [2]) was > 4 µg/mL throughout.
Consider `CCCCOCCCNCc1ccc(OC)c(-c2ccc(O)c3c2C[C@H]2C[C@H]4[C@H](N(C)C)C(O)=C(C(N)=O)C(=O)[C@@]4(O)C(O)=C2C3=O)c1` [FR], for which the MIC in the experiment with S. aureus RN450 (setting [1]) and in the experiment with E. coli mL308 225 (setting [2]) was < 4 µg/mL each time.
Regarding `Cc1cc(-c2ccc(O)c3c2C[C@H]2C[C@H]4[C@H](N(C)C)C(O)=C(C(N)=O)C(=O)[C@@]4(O)C(O)=C2C3=O)ccc1F`, the MIC in the experiment with S. aureus RN450 (setting [3]) and with E. coli mL308 225 (setting [4]) was < 4 µg/mL throughout.
Regarding `CN(C)CC(=O)Nc1ccc(C#Cc2ccc(O)c3c2C[C@H]2C[C@H]4[C@H](N(C)C)C(O)=C(C(N)=O)C(=O)[C@@]4(O)C(O)=C2C3=O)cc1` [BM], the MIC in the experiment on S. aureus RN450 (setting [1]) and in the experiment with E. coli mL308 225 (setting [2]) was < 4 µg/mL in each case.
With `C=C(Cl)c1ccc(O)c2c1C[C@H]1C[C@H]3[C@H](N(C)C)C(O)=C(C(N)=O)C(=O)[C@@]3(O)C(O)=C1C2=O` [AW], the MIC with S. aureus RN450 (setting [1]) and with E. coli mL308 225 (setting [2]) was < 4 µg/mL throughout.
For the molecule `COc1cccc(CNCc2cc(N(C)C)c3c(c2O)C(=O)C2=C(O)[C@]4(O)C(=O)C(C(N)=O)=C(O)[C@@H](N(C)C)[C@@H]4C[C@@H]2C3)c1`, the MIC in the experiment with S. aureus RN450 (setting [3]) is < 4 µg/mL; with E. coli mL308 225 (setting [4]) it was > 4 µg/mL.
For `CN(C)[C@@H]1C(O)=C(C(N)=O)C(=O)[C@@]2(O)C(O)=C3C(=O)c4c(O)ccc(-c5ccoc5)c4C[C@H]3C[C@@H]12` [drawing 3429] the same measures were < 4 µg/mL and < 4 µg/mL.
With `CCN(Cc1ccccc1)Cc1cc(N(C)C)c2c(c1O)C(=O)C1=C(O)[C@]3(O)C(=O)C(C(N)=O)=C(O)[C@@H](N(C)C)[C@@H]3C[C@@H]1C2`, the MIC in the experiment on S. aureus RN450 (setting [3]) and in the experiment on E. coli mL308 225 (setting [4]) was < 4 µg/mL throughout.
